Results from the supplement of paper PMC12076712.
± gives the standard deviation of the averaged measurements.

Assays:
CDK10 = CDK10 (UniProt Q15131); assay: pIC50, kinobeads binding competition; conditions: cell material: Jurkat lysate
KSR1 = molecular target: T1, KSR1 (UniProt Q8IVT5); assay: pIC50, kinobeads binding competition; conditions: cell material: Jurkat lysate
T1 sequence (whole entry): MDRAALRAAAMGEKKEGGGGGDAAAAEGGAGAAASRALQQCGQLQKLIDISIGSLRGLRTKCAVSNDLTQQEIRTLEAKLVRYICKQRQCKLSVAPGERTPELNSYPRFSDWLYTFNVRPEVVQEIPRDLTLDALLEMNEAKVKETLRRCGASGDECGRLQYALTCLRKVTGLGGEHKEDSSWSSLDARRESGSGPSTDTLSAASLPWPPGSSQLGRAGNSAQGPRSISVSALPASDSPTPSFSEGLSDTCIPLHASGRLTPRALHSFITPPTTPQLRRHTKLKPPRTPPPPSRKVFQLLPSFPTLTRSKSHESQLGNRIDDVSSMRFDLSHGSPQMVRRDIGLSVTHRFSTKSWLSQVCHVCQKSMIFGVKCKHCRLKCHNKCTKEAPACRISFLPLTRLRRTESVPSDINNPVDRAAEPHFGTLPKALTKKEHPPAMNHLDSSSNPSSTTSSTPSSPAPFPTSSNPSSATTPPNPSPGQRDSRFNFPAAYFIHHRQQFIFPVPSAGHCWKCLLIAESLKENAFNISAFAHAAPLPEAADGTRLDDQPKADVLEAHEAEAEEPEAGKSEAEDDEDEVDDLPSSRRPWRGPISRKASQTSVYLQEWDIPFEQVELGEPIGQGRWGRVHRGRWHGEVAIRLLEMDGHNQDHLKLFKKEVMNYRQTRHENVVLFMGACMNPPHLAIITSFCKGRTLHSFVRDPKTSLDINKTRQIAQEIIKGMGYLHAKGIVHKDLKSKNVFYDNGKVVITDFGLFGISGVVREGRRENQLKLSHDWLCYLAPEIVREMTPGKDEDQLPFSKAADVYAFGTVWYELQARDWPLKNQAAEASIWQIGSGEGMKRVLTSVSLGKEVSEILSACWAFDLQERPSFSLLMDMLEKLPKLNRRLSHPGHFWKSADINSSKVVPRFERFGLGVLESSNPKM

MAPKAPK3 = MAPKAPK3 (UniProt Q16644); assay: pIC50, kinobeads binding competition; conditions: cell material: Jurkat lysate
MAPKAPK3, sequence (Q16644 whole entry, looked up): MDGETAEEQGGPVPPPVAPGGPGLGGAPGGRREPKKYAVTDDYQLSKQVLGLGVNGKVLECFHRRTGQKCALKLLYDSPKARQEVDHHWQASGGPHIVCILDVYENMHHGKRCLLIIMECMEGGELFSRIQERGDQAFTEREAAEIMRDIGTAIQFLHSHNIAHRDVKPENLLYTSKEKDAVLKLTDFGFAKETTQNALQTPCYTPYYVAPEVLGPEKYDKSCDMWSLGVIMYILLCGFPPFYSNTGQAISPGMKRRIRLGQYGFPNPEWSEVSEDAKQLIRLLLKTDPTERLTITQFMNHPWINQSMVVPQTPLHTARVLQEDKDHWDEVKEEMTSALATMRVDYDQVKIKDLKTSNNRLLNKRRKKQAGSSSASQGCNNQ

MAST3 = MAST3 (UniProt O60307); assay: pIC50, kinobeads binding competition; conditions: cell material: Jurkat lysate
MAST4 = MAST4 (UniProt O15021); assay: pIC50, kinobeads binding competition; conditions: cell material: Jurkat lysate
MAST4, sequence (O15021 whole entry): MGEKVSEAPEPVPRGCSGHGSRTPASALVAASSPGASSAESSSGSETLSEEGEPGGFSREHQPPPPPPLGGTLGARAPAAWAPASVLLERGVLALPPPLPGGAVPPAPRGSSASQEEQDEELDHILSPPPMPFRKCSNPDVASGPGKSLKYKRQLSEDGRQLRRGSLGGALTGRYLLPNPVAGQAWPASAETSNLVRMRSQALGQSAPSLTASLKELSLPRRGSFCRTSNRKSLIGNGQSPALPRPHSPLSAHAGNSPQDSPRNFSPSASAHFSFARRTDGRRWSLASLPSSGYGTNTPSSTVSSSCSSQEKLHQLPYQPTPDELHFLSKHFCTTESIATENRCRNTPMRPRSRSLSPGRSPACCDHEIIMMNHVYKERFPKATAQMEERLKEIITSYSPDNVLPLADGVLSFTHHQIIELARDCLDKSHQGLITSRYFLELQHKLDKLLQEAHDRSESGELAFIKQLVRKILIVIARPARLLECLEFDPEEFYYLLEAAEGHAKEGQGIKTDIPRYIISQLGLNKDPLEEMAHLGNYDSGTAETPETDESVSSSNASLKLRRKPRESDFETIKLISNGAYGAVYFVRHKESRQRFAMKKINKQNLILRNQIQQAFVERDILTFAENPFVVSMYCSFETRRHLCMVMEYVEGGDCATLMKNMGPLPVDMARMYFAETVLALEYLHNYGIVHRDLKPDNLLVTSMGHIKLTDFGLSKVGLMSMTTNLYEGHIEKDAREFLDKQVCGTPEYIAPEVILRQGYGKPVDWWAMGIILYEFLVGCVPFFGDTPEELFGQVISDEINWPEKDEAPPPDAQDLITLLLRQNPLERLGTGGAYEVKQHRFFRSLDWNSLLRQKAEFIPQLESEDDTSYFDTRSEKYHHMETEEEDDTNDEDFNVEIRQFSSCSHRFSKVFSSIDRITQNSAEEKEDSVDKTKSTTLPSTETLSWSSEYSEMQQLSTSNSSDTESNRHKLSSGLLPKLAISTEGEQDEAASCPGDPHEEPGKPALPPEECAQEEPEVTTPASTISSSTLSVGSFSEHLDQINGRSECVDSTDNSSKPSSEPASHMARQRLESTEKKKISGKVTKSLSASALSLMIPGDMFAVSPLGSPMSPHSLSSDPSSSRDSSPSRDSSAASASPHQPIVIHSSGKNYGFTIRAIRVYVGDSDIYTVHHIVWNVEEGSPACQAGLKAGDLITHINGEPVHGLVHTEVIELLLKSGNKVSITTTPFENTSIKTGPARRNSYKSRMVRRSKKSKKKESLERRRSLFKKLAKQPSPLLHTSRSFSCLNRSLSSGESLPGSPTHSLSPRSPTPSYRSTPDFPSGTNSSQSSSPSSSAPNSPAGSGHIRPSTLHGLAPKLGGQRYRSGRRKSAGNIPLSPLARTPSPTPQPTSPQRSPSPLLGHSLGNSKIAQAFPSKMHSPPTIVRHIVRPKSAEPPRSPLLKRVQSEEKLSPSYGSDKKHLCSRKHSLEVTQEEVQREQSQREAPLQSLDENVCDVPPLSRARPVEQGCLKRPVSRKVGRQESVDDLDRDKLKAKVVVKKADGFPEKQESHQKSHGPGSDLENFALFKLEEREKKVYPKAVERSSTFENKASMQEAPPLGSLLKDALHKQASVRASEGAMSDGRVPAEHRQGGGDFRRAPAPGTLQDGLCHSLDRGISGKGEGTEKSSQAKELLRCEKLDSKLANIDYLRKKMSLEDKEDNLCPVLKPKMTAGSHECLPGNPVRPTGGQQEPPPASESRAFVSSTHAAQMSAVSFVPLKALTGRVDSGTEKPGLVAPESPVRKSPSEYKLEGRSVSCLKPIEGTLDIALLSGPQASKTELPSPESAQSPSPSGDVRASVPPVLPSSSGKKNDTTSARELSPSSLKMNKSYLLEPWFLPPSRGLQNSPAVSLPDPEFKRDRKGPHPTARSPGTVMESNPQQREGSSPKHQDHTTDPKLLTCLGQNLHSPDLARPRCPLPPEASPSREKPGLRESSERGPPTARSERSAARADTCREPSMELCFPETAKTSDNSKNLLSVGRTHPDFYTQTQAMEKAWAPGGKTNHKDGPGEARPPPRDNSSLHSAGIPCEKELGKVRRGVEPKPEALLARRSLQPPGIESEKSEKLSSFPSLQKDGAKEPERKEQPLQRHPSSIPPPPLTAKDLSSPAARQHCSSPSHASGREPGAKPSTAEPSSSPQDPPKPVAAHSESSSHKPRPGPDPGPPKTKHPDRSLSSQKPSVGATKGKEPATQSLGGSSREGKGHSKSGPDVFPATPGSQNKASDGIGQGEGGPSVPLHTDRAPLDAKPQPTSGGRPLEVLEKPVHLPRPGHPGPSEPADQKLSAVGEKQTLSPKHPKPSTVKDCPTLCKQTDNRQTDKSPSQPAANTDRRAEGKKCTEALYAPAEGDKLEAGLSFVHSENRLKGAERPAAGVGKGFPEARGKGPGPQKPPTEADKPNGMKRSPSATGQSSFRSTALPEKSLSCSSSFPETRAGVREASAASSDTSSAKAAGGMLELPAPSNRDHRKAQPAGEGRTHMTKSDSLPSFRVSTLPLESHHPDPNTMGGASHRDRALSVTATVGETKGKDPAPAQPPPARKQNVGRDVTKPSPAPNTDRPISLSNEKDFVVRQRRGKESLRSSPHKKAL

MASTL = molecular target: T2, MASTL (UniProt Q96GX5); assay: pIC50, kinobeads binding competition; conditions: cell material: Jurkat lysate
T2 sequence (whole entry): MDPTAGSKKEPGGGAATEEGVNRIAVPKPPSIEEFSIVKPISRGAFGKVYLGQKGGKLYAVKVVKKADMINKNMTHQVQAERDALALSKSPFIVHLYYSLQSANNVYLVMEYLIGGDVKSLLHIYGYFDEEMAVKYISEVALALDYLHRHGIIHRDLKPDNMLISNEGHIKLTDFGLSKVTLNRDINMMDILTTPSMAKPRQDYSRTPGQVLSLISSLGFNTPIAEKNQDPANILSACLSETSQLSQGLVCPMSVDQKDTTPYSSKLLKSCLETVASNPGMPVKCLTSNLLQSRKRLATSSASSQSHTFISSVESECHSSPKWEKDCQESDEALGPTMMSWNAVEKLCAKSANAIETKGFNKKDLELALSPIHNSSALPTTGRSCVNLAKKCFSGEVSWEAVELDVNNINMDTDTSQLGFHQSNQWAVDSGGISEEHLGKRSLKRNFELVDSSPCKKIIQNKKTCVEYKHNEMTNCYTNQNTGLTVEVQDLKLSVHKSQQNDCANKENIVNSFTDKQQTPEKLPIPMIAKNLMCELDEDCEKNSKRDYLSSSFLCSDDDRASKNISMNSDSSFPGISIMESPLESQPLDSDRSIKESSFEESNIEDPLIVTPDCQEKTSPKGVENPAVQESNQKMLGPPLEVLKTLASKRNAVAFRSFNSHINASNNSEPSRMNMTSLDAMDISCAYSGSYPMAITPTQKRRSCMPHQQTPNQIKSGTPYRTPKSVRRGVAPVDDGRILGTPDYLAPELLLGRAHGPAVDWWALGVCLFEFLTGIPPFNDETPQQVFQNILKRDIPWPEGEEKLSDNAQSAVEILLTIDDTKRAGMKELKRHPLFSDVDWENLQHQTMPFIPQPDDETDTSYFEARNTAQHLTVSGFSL

PBK = molecular target: T3, PBK (UniProt Q96KB5); assay: pIC50, kinobeads binding competition; conditions: cell material: Jurkat lysate
T3 sequence (whole entry): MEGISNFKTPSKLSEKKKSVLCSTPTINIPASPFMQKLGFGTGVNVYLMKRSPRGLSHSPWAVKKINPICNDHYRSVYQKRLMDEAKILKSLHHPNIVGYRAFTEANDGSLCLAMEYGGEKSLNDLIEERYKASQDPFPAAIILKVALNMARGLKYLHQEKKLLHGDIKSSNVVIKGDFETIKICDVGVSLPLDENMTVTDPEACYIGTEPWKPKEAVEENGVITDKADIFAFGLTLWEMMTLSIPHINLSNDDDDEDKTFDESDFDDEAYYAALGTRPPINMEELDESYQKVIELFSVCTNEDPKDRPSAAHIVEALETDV

PDIK1L = PDIK1L (UniProt Q8N165); assay: pIC50, kinobeads binding competition; conditions: cell material: Jurkat lysate
PDIK1L, sequence (Q8N165 whole entry): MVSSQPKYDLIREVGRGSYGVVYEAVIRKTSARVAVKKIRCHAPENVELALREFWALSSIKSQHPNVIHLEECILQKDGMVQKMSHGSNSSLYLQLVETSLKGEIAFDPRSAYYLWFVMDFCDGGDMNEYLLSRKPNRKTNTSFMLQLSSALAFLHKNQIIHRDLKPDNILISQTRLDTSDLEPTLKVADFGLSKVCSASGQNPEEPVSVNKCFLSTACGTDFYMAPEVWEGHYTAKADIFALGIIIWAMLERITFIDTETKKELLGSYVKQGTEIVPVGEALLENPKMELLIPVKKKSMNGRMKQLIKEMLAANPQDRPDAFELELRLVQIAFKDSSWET

PIK3R4 = PIK3R4 (UniProt Q99570); assay: pIC50, kinobeads binding competition; conditions: cell material: Jurkat lysate
PIP4K2A = molecular target: T4, PIP4K2A (UniProt P48426); assay: pIC50, kinobeads binding competition; conditions: cell material: Jurkat lysate
T4 sequence (whole entry): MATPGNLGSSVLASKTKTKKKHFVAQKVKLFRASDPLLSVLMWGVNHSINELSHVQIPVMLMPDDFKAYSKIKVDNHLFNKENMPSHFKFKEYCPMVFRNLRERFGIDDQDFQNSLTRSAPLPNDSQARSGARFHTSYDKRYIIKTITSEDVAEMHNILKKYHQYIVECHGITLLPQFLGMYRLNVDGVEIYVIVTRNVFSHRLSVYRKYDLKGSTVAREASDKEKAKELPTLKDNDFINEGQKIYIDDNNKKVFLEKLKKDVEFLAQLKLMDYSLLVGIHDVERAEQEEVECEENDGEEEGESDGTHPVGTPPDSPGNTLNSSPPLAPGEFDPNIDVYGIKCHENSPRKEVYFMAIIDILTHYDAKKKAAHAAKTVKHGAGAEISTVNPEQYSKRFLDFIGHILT

TRRAP = TRRAP (UniProt Q9Y4A5); assay: pIC50, kinobeads binding competition; conditions: cell material: Jurkat lysate
UniProt Q5TCX8 = assay: pIC50, kinobeads binding competition; conditions: cell material: Jurkat lysate
UniProt Q5TCX8, sequence (Q5TCX8 whole entry): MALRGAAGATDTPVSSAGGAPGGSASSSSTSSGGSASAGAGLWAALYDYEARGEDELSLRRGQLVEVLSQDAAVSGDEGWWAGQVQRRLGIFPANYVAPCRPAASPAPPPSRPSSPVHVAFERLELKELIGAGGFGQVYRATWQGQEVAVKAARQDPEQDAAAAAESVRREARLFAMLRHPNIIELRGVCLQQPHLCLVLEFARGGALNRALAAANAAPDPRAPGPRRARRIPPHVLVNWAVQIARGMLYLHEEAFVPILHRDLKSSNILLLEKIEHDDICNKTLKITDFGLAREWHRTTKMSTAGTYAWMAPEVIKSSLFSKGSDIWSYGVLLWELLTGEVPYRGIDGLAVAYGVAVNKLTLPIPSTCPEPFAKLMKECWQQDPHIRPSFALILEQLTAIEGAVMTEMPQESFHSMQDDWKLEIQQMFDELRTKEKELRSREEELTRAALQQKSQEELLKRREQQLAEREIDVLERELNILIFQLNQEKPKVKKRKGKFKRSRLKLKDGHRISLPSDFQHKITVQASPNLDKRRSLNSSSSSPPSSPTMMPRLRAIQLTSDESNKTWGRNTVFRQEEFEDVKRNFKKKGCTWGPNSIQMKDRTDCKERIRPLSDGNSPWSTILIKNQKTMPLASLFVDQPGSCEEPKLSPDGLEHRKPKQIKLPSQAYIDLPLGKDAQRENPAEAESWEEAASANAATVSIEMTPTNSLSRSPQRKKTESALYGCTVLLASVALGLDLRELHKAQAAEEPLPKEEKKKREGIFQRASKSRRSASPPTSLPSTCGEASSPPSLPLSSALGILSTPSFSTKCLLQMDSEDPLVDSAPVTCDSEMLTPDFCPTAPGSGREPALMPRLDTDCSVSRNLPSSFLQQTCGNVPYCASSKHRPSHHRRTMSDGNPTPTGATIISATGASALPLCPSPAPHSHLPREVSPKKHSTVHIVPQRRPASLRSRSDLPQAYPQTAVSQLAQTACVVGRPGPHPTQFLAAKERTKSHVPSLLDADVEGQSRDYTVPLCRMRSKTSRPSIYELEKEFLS

SPR = SPR (UniProt P35270); assay: pIC50, competition of probe 3 labelling in live cells; conditions: cell material: Jurkat cells
SPR, sequence (P35270 whole entry, looked up): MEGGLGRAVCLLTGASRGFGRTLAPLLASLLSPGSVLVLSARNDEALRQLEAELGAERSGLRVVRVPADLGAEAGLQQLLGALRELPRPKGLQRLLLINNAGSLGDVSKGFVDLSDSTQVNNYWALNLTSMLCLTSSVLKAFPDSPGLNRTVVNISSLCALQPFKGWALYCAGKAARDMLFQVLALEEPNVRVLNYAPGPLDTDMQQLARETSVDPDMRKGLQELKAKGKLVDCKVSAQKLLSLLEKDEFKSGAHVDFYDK

CDK10, sequence (Q15131 whole entry): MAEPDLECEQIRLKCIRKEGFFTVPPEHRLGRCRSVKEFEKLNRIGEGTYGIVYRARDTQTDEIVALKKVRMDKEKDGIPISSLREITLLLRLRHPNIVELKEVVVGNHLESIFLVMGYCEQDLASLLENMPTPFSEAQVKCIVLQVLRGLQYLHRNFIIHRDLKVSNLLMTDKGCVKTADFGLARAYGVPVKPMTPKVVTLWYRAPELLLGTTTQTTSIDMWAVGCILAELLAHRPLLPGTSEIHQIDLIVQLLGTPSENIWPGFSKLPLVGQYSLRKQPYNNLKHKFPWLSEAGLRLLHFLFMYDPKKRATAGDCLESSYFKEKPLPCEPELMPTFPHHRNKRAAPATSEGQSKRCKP

pIC50 (CDK10)	pIC50 (KSR1)	pIC50 (MAPKAPK3)	pIC50 (MAST3)	pIC50 (MAST4)	pIC50 (MASTL)	pIC50 (PBK)	pIC50 (PDIK1L)	pIC50 (PIK3R4)	pIC50 (PIP4K2A)	pIC50 (TRRAP)	pIC50 (UniProt Q5TCX8)	pIC50 (SPR)	Structure (SMILES)
< 4.52	4.72	6.74	< 4.52	< 4.52	< 4.52	< 4.52	4.89 ± 0.099	< 4.52	< 4.52	< 4.52	< 4.52		Cc1nc(Nc2ncc(C(=O)Nc3c(C)cccc3Cl)s2)cc(N2CCN(CCO)CC2)n1 [dasatinib]
												7.61 ± 0.34	Cc1c(C(=O)N2CCN(CC(F)(F)F)CC2)cnn1-c1nn2cccc2c(=O)[nH]1 [QM385]
